Source: ChEMBL document CHEMBL3352064, “Synthesis and bioactive evaluation of a novel series of coumarinazoles” (Bioorg Med Chem Lett, 2014)
Converted amounts (≈) assume the structure as drawn.

Legend:
[1] = tested on: Pseudomonas aeruginosa; assay: Antimicrobial activity against Pseudomonas aeruginosa by two-fold serial dilution technique; assay type: functional
[2] = n-Octanol-water partition coefficient, log P of the compound after 24 hrs by shake flask method; assay type: physicochemical
[3] = tested on: Escherichia coli; assay: Antimicrobial activity against Escherichia coli JM109 by two-fold serial dilution technique; assay type: functional
[4] = tested on: Micrococcus luteus; assay: Antimicrobial activity against Micrococcus luteus ATCC 4698 by two-fold serial dilution technique; assay type: functional
[5] = tested on: Cyberlindnera jadinii; assay: Antimicrobial activity against Candida utilis by two-fold serial dilution technique; assay type: functional; details: Williopsis jadinii
[6] = tested on: Aspergillus flavus; assay: Antimicrobial activity against Aspergillus flavus by two-fold serial dilution technique; assay type: functional
[7] = tested on: Saccharomyces cerevisiae; assay: Antimicrobial activity against Saccharomyces cerevisiae by two-fold serial dilution technique; assay type: functional
[8] = tested on: Candida; assay: Antimicrobial activity against Candida mycoderma by two-fold serial dilution technique; assay type: functional
[9] = tested on: Staphylococcus aureus; assay: Antimicrobial activity against methicillin-resistant Staphylococcus aureus N315 by two-fold serial dilution technique; assay type: functional
[10] = tested on: Bacillus subtilis; assay: Antimicrobial activity against Bacillus subtilis by two-fold serial dilution technique; assay type: functional
[11] = tested on: Candida albicans; assay: Antimicrobial activity against Candida albicans by two-fold serial dilution technique; assay type: functional
[12] = tested on: Shigella dysenteriae; assay: Antimicrobial activity against Shigella dysenteriae by two-fold serial dilution technique; assay type: functional

For `Cc1cc(=O)oc2cc(OCC(O)CSc3nc4ccccc4[nH]3)c(OCC(O)CSc3nc4ccccc4[nH]3)cc12` (stereo not drawn), the MIC [1] was 16 µg/mL (≈ 26.5 µM), the logP at 24 h [2] was 0.58 and the MIC [3] was 0.5 µg/mL (≈ 0.827 µM). It also gave an MIC [4] of 32 µg/mL (≈ 52.9 µM), an MIC [5] of 2 µg/mL (≈ 3.31 µM) and an MIC [6] of 64 µg/mL (≈ 106 µM). The MIC [7] was 16 µg/mL (≈ 26.5 µM), the MIC [8] was 16 µg/mL (≈ 26.5 µM) and the MIC [9] was 64 µg/mL (≈ 106 µM). It also gave an MIC [10] of 64 µg/mL (≈ 106 µM), an MIC [11] of 8 µg/mL (≈ 13.2 µM) and an MIC [12] of 32 µg/mL (≈ 52.9 µM).
For `CCn1cc(C(=O)O)c(=O)c2cc(F)c(N3CCNCC3)cc21` [NORFLOXACIN], the MIC [1] was 1 µg/mL (≈ 3.13 µM), the MIC [3] was 16 µg/mL (≈ 50.1 µM) and the MIC [4] was 2 µg/mL (≈ 6.26 µM). For the same molecule, the MIC [9] was 8 µg/mL (≈ 25.1 µM), the MIC [10] was 16 µg/mL (≈ 50.1 µM) and the MIC [12] was 4 µg/mL (≈ 12.5 µM).
With `Cc1cc(=O)oc2cc(OCC(O)Cn3cncn3)c(OCC(O)Cn3cncn3)cc12` (stereo not drawn) the MIC [1] was 32 µg/mL (≈ 72.3 µM), the logP at 24 h [2] was 0.65 and the MIC [3] was 1 µg/mL (≈ 2.26 µM). The MIC [4] was 32 µg/mL (≈ 72.3 µM), the MIC [5] was 4 µg/mL (≈ 9.04 µM) and the MIC [6] was 32 µg/mL (≈ 72.3 µM). For the same molecule, the MIC [7] was 32 µg/mL (≈ 72.3 µM), the MIC [8] was 4 µg/mL (≈ 9.04 µM) and the MIC [9] was 8 µg/mL (≈ 18.1 µM). It also gave an MIC [10] of 16 µg/mL (≈ 36.2 µM), an MIC [11] of 1 µg/mL (≈ 2.26 µM) and an MIC [12] of 16 µg/mL (≈ 36.2 µM).
Molecule `Cc1cc2ncn(CC(O)COc3ccc4c(C)cc(=O)oc4c3)c2cc1C` (stereo not drawn) has an MIC [1] of 64 µg/mL (≈ 169 µM), a logP at 24 h [2] of 0.61 and an MIC [3] of 128 µg/mL (≈ 338 µM). The MIC [4] was 128 µg/mL (≈ 338 µM), the MIC [5] was 4 µg/mL (≈ 10.6 µM) and the MIC [6] was 128 µg/mL (≈ 338 µM). For the same molecule, the MIC [7] was 32 µg/mL (≈ 84.6 µM), the MIC [8] was 16 µg/mL (≈ 42.3 µM) and the MIC [9] was 64 µg/mL (≈ 169 µM). It also gave an MIC [10] of 128 µg/mL (≈ 338 µM), an MIC [11] of 16 µg/mL (≈ 42.3 µM) and an MIC [12] of 64 µg/mL (≈ 169 µM).
With `Cc1cc(=O)oc2cc(OCC(O)Cn3nnc4ccccc43)c(OCC(O)Cn3nnc4ccccc43)cc12` (stereo not drawn) the MIC [1] was 32 µg/mL (≈ 59 µM), the logP at 24 h [2] was 0.48 and the MIC [3] was 32 µg/mL (≈ 59 µM). It also gave an MIC [4] of 16 µg/mL (≈ 29.5 µM), an MIC [5] of 16 µg/mL (≈ 29.5 µM) and an MIC [6] of 256 µg/mL (≈ 472 µM). The MIC [7] was 32 µg/mL (≈ 59 µM), the MIC [8] was 16 µg/mL (≈ 29.5 µM) and the MIC [9] was 32 µg/mL (≈ 59 µM). It also gave an MIC [10] of 64 µg/mL (≈ 118 µM), an MIC [11] of 8 µg/mL (≈ 14.7 µM) and an MIC [12] of 64 µg/mL (≈ 118 µM).
Molecule `OC(Cn1cncn1)(Cn1cncn1)c1ccc(F)cc1F` [FLUCONAZOLE] has an MIC [5] of 8 µg/mL (≈ 26.1 µM), an MIC [6] of 256 µg/mL (≈ 836 µM) and an MIC [7] of 16 µg/mL (≈ 52.2 µM). For the same molecule, the MIC [8] was 4 µg/mL (≈ 13.1 µM) and the MIC [11] was 1 µg/mL (≈ 3.27 µM).
Work on `Cc1cc(=O)oc2cc(OCC(O)CSc3nc4ccccc4[nH]3)ccc12` (stereo not drawn) yielded an MIC [1] of 64 µg/mL (≈ 167 µM), a logP at 24 h [2] of 0.49 and an MIC [3] of 0.5 µg/mL (≈ 1.31 µM). For the same molecule, the MIC [4] was 16 µg/mL (≈ 41.8 µM), the MIC [5] was 0.5 µg/mL (≈ 1.31 µM) and the MIC [6] was 16 µg/mL (≈ 41.8 µM). The MIC [7] was 64 µg/mL (≈ 167 µM), the MIC [8] was 16 µg/mL (≈ 41.8 µM) and the MIC [9] was 32 µg/mL (≈ 83.7 µM). The MIC [10] was 32 µg/mL (≈ 83.7 µM), the MIC [11] was 32 µg/mL (≈ 83.7 µM) and the MIC [12] was 64 µg/mL (≈ 167 µM).
In the case of `Cc1cc(=O)oc2cc(OCC(O)Cn3nnc4ccccc43)ccc12` (stereo not drawn), the MIC [1] is reported as 32 µg/mL (≈ 91.1 µM), the logP at 24 h [2] is reported as 0.6 and the MIC [3] is reported as 16 µg/mL (≈ 45.5 µM). For the same molecule, the MIC [4] was 32 µg/mL (≈ 91.1 µM), the MIC [5] was 16 µg/mL (≈ 45.5 µM) and the MIC [6] was 256 µg/mL (≈ 729 µM). It also gave an MIC [7] of 8 µg/mL (≈ 22.8 µM), an MIC [8] of 16 µg/mL (≈ 45.5 µM) and an MIC [9] of 16 µg/mL (≈ 45.5 µM). For the same molecule, the MIC [10] was 16 µg/mL (≈ 45.5 µM), the MIC [11] was 4 µg/mL (≈ 11.4 µM) and the MIC [12] was 64 µg/mL (≈ 182 µM).
`Cc1cc(=O)oc2cc(OCC3CO3)ccc12` (stereo not drawn) showed an MIC [1] of 8 µg/mL (≈ 34.4 µM), an MIC [3] of 0.5 µg/mL (≈ 2.15 µM) and an MIC [4] of 4 µg/mL (≈ 17.2 µM). The MIC [5] was 32 µg/mL (≈ 138 µM), the MIC [6] was 1 µg/mL (≈ 4.31 µM) and the MIC [7] was 1 µg/mL (≈ 4.31 µM). It also gave an MIC [8] of 8 µg/mL (≈ 34.4 µM), an MIC [9] of 128 µg/mL (≈ 551 µM) and an MIC [10] of 2 µg/mL (≈ 8.61 µM). For the same molecule, the MIC [11] was 16 µg/mL (≈ 68.9 µM) and the MIC [12] was 4 µg/mL (≈ 17.2 µM).
With `Cc1cc(=O)oc2cc(OCC(O)Cn3cnc4ccccc43)c(OCC(O)Cn3cnc4ccccc43)cc12` (stereo not drawn) the MIC [1] was 128 µg/mL (≈ 237 µM), the logP at 24 h [2] was 0.49 and the MIC [3] was > 512 µg/mL. The MIC [4] was 128 µg/mL (≈ 237 µM), the MIC [5] was 512 µg/mL (≈ 947 µM) and the MIC [6] was 512 µg/mL (≈ 947 µM). The MIC [7] was > 512 µg/mL, the MIC [8] was 64 µg/mL (≈ 118 µM) and the MIC [9] was 512 µg/mL (≈ 947 µM). The MIC [10] was > 512 µg/mL, the MIC [11] was > 512 µg/mL and the MIC [12] was > 512 µg/mL.
`Cc1cc(=O)oc2cc(OCC(O)Cn3cncn3)ccc12` (stereo not drawn) showed an MIC [1] of 4 µg/mL (≈ 13.3 µM), a logP at 24 h [2] of 0.45 and an MIC [3] of 64 µg/mL (≈ 212 µM). The MIC [4] was 16 µg/mL (≈ 53.1 µM), the MIC [5] was 4 µg/mL (≈ 13.3 µM) and the MIC [6] was 6 µg/mL (≈ 19.9 µM). The MIC [7] was 32 µg/mL (≈ 106 µM), the MIC [8] was 16 µg/mL (≈ 53.1 µM) and the MIC [9] was 32 µg/mL (≈ 106 µM). The MIC [10] was 32 µg/mL (≈ 106 µM), the MIC [11] was 4 µg/mL (≈ 13.3 µM) and the MIC [12] was 32 µg/mL (≈ 106 µM).
With `Cc1cc(=O)oc2cc(OCC(O)Cn3cnc4ccccc43)ccc12` (stereo not drawn) the MIC [1] was > 512 µg/mL, the logP at 24 h [2] was 0.55 and the MIC [3] was 128 µg/mL (≈ 365 µM). The MIC [4] was 512 µg/mL (≈ 1460 µM), the MIC [5] was 512 µg/mL (≈ 1460 µM) and the MIC [6] was > 512 µg/mL. For the same molecule, the MIC [7] was 512 µg/mL (≈ 1460 µM), the MIC [8] was 128 µg/mL (≈ 365 µM) and the MIC [9] was 512 µg/mL (≈ 1460 µM). The MIC [10] was 128 µg/mL (≈ 365 µM), the MIC [11] was 128 µg/mL (≈ 365 µM) and the MIC [12] was 512 µg/mL (≈ 1460 µM).
For `Cc1cc(=O)oc2cc(OCC3CO3)cc(OCC3CO3)c12` (stereo not drawn), the MIC [1] was 8 µg/mL (≈ 26.3 µM), the MIC [3] was 0.5 µg/mL (≈ 1.64 µM) and the MIC [4] was 8 µg/mL (≈ 26.3 µM). For the same molecule, the MIC [5] was 16 µg/mL (≈ 52.6 µM), the MIC [6] was 16 µg/mL (≈ 52.6 µM) and the MIC [7] was 8 µg/mL (≈ 26.3 µM). For the same molecule, the MIC [8] was 8 µg/mL (≈ 26.3 µM), the MIC [9] was 64 µg/mL (≈ 210 µM) and the MIC [10] was 4 µg/mL (≈ 13.1 µM). The MIC [11] was 8 µg/mL (≈ 26.3 µM) and the MIC [12] was 4 µg/mL (≈ 13.1 µM).
`Cc1cc2ncn(CC(O)COc3cc4oc(=O)cc(C)c4cc3OCC(O)Cn3cnc4cc(C)c(C)cc43)c2cc1C` (stereo not drawn) showed an MIC [1] of 16 µg/mL (≈ 26.8 µM), a logP at 24 h [2] of 0.61 and an MIC [3] of 32 µg/mL (≈ 53.6 µM). For the same molecule, the MIC [4] was 64 µg/mL (≈ 107 µM), the MIC [5] was 4 µg/mL (≈ 6.7 µM) and the MIC [6] was 64 µg/mL (≈ 107 µM). The MIC [7] was 16 µg/mL (≈ 26.8 µM), the MIC [8] was 32 µg/mL (≈ 53.6 µM) and the MIC [9] was 32 µg/mL (≈ 53.6 µM). It also gave an MIC [10] of 128 µg/mL (≈ 215 µM), an MIC [11] of 16 µg/mL (≈ 26.8 µM) and an MIC [12] of 16 µg/mL (≈ 26.8 µM).
